US10870651B2, “Inhibitors of cyclin-dependent kinase 7 (CDK7)” (Dana-Farber Cancer Institute, Inc., priority 2014, dated 2020)
Each block holds one molecule with its values, some of them ahead of it.

Assays:
[1] = test system: Jurkat T-cell acute lymphoblastic leukemia; assay: Inhibition of cell proliferation (CellTiter-Glo), Jurkat; format: cell-based; details: Homo sapiens, 72 hours incubation, CellTiter-Glo, 25,000 cells/well
Description: (§1) Exemplary compounds of the invention were tested at different concentrations. Cells were plated in 96-well plates at the following seeding densities: Jurkat T-cell acute lymphoblastic leukemia 25,000 cells/well; HCT116 colorectal carcinoma 8,000 cells/well; Kelly neuroblastoma 4,000 cells/well. The cells were treated with various concentration of compounds (ranging from 1 nM to 10 μM). DMSO solvent with no compound served as a control. Following incubation for 72 hours, cell survival following treatment with exemplary compounds described herein was assessed by CellTiter-Glo® Luminescent cell viability assay (Promega). IC50 values were determined using GRAPHPAD PRISM 6 software. Exemplary results are shown in Table A3, wherein “A” represents a calculated IC50 value of less than 500 nM; “B” represents a calculated IC50 value of greater than or equal to 500 nM and less than 5000 μM; and “C” represents a calculated IC50 value of 5000 μM or greater

[2] = biological target: HIPK4 (Homo sapiens (Human), UniProt Q8NE63); assay: Inhibition of kinase activity, HIPK4; format: biochemical
Description: (§2) Compounds of the invention were assayed for activity against a variety of different kinases. Exemplary results are presented as calculated IC50 values (Table A1 & A2). In Table A1 and A2 “A” represents a calculated IC50 value of less than 100 nM; “B” represents a calculated IC50 value of greater than or equal to 100 nM and less than 1 μM; and “C” represents a calculated IC50 value of 1 μM or greater. The co-factors used for each kinase in the assays were as follows: CDK7: cyclin H and MNAT1; CDK2: cyclin A; CDK9: cyclin K.

[3] = biological target: T1, CDK7 (Homo sapiens (Human), UniProt P50613); assay: Labeling of CDK7 with an inhibitor (CAK complex, nano LC-MS); format: binding; details: 10-fold molar excess of compound, 6 hrs at 37° C., trypsin digest
Description: CAK complex (Millipore cat#14-476) in 40 mM Hepes pH 7.4, 150 mM NaCl, 5% glycerol and 1 mM DTT with protease and phosphatase inhibitors was incubated with a 10-fold molar excess of Compound 101 for 6 hrs at 37° C. Proteins were resolved by SDS-PAGE, bands corresponding to CDK7 were digested in-gel with trypsin, and peptides analyzed by nano LC-MS using an Orbitrap XL mass spectrometer (ThermoFisher Scientific, San Jose, Calif.). Efficiency of labeling was estimated from the reduction in signal of the Cys312 containing peptide […] (SEQ ID NO: 3) compared to DMSO control. Signals from CDK7 peptides VPFLPGDSDLDQLTR (SEQ ID NO: 1) and LDFLGEGQFATVYK were used for normalization. See FIG. 1 for the total ion chromatograms (TIC) and extracted ion chromatograms (EIC) of the CDK7 peptides treated with DMSO (A-D) or Compound 101 (E-H). The labeled peptide was detected by mass spectrometry, as shown in the spectrum of FIG. 2.

[4] = biological target: CHEK2 (Homo sapiens (Human), UniProt O96017); assay: Inhibition of kinase activity, CHEK2; format: biochemical
Description: as §2

[5] = biological target: MELK (Homo sapiens (Human), UniProt Q14680); assay: Inhibition of kinase activity, MELK; format: biochemical
Description: as §2

[6] = biological target: PRKCQ (Homo sapiens (Human), UniProt Q04759); assay: Inhibition of kinase activity, PRKCQ; format: biochemical
Description: as §2

[7] = biological target: FGR (Homo sapiens (Human), UniProt P09769); assay: Inhibition of kinase activity, FGR; format: biochemical
Description: as §2

[8] = biological target: RET (Homo sapiens (Human), UniProt P07949); assay: Inhibition of kinase activity, RET; format: biochemical
Description: as §2

[9] = biological target: CDK2 (Homo sapiens (Human), UniProt P24941); assay: Inhibition of kinase activity, CDK2; format: biochemical; details: co-factor cyclin A
Description: as §2

[10] = biological target: SRC (Homo sapiens (Human), UniProt P12931); assay: Inhibition of kinase activity, SRC; format: biochemical
Description: as §2

[11] = test system: Kelly neuroblastoma; assay: Inhibition of cell proliferation (CellTiter-Glo), Kelly; format: cell-based; details: 72 hours incubation, CellTiter-Glo, 4,000 cells/well
Description: as §1

[12] = test system: HCT116 colorectal carcinoma; assay: Inhibition of cell proliferation (CellTiter-Glo), HCT116; format: cell-based; details: Homo sapiens, HCT-116; 72 hours incubation, CellTiter-Glo, 8,000 cells/well
Description: as §1

[13] = biological target: T1, CDK7; assay: Inhibition of kinase activity, CDK7; format: biochemical; details: co-factors cyclin H and MNAT1
Description: as §2

[14] = biological target: CDK9 (Homo sapiens (Human), UniProt P50750); assay: Inhibition of kinase activity, CDK9; format: biochemical; details: co-factor cyclin K
Description: as §2

T1 sequence (P50613 whole entry): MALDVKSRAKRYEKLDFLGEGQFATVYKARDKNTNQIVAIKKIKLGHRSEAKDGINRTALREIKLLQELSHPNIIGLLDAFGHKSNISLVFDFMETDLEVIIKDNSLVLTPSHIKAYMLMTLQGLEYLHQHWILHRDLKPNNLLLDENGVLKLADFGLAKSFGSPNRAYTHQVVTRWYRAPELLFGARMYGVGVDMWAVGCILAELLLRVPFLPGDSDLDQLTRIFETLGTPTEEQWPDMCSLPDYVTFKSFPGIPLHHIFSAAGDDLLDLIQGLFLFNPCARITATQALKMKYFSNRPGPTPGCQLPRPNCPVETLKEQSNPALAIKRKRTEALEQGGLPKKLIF
T1 sequence (P51946 whole entry partner): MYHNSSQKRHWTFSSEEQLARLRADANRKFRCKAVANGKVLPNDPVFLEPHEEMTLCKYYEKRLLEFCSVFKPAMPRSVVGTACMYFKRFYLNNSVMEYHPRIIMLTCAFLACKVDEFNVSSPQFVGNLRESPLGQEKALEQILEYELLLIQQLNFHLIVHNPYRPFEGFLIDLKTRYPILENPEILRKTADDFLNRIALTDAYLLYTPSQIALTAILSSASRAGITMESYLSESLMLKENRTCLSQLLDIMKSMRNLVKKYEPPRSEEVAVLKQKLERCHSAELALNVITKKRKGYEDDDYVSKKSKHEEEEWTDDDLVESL
T1 sequence (P51948 whole entry partner): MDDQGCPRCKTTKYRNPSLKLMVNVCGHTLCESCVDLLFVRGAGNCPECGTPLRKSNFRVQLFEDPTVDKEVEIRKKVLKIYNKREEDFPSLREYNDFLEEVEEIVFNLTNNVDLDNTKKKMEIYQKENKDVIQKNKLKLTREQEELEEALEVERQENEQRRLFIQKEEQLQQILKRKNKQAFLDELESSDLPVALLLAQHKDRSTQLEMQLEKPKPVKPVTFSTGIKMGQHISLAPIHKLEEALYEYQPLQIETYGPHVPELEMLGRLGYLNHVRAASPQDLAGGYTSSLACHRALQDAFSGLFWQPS
Sequence of MELK (Q14680 whole entry): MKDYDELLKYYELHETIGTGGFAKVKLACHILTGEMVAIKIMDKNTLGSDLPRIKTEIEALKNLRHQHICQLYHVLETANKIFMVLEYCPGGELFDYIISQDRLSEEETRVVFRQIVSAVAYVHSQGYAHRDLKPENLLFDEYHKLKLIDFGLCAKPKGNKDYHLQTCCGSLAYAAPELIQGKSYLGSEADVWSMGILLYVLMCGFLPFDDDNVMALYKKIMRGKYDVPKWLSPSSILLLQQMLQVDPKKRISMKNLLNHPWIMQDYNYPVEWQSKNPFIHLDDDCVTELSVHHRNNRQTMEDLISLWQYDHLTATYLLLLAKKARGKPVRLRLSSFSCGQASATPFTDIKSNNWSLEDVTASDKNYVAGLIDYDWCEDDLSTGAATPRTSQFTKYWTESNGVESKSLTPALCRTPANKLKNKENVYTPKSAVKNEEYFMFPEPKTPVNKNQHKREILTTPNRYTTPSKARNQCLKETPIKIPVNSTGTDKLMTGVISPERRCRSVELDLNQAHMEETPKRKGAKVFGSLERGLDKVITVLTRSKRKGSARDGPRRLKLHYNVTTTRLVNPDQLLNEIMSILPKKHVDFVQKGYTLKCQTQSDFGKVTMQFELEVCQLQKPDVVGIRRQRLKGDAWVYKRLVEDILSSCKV
Sequence of HIPK4 (Q8NE63 whole entry): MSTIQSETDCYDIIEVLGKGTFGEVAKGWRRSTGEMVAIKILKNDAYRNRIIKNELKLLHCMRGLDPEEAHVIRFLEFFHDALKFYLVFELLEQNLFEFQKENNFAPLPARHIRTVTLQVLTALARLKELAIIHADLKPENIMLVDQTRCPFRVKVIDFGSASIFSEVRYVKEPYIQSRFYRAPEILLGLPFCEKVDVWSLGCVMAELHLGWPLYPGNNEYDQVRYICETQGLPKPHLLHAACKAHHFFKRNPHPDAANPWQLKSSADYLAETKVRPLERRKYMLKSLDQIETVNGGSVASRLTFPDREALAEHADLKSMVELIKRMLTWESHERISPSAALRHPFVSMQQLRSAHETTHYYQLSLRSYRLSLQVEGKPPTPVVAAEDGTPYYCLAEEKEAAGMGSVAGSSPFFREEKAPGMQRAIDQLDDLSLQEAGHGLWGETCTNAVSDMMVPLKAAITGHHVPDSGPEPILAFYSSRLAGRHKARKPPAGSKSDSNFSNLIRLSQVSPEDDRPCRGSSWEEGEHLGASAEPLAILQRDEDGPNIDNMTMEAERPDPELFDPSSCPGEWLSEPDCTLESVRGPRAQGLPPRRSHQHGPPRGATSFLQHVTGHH
Sequence of PRKCQ (Q04759 whole entry): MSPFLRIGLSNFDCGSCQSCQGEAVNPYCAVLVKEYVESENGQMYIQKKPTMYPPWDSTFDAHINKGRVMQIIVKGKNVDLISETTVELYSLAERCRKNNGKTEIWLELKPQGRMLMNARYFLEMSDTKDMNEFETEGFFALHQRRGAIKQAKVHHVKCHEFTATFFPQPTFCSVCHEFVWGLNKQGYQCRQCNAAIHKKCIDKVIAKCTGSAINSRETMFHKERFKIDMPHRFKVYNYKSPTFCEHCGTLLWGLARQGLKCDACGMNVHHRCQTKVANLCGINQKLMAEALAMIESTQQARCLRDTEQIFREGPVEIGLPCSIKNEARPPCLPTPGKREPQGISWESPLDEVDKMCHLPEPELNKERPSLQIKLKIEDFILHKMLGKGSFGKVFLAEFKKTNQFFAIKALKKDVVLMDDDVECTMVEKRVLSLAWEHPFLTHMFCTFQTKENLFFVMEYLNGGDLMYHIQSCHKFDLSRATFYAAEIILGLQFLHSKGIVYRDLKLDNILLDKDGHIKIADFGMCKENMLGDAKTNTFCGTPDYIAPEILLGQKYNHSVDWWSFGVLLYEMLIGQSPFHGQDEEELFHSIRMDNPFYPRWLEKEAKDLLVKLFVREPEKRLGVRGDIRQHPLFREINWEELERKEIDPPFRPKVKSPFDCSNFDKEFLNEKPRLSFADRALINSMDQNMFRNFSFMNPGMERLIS
Sequence of SRC (P12931 whole entry, looked up): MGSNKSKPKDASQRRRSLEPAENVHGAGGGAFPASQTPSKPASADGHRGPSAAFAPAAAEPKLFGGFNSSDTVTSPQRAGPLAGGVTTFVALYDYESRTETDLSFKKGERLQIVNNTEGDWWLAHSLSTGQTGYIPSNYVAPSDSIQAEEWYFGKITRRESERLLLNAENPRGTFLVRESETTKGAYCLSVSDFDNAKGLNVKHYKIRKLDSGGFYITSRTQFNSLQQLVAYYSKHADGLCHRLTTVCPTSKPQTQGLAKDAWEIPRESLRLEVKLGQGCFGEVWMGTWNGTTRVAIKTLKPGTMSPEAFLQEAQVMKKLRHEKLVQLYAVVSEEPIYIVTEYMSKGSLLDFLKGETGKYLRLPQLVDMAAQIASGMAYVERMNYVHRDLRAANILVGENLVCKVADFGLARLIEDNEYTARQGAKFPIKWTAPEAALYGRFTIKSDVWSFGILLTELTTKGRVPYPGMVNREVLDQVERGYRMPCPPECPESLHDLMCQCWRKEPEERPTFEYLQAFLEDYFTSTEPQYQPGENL
Sequence of CDK9 (P50750 whole entry): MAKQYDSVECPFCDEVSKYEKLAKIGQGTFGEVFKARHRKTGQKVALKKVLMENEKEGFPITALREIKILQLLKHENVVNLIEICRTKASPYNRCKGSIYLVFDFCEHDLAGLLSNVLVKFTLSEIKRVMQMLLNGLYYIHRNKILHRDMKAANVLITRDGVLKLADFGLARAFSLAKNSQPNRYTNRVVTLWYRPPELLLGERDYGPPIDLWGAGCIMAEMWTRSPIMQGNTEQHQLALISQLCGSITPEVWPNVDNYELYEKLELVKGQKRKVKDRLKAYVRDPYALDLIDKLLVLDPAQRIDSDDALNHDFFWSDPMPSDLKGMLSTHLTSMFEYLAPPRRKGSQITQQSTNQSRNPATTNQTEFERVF
Sequence of CDK9 (O75909 whole entry partner): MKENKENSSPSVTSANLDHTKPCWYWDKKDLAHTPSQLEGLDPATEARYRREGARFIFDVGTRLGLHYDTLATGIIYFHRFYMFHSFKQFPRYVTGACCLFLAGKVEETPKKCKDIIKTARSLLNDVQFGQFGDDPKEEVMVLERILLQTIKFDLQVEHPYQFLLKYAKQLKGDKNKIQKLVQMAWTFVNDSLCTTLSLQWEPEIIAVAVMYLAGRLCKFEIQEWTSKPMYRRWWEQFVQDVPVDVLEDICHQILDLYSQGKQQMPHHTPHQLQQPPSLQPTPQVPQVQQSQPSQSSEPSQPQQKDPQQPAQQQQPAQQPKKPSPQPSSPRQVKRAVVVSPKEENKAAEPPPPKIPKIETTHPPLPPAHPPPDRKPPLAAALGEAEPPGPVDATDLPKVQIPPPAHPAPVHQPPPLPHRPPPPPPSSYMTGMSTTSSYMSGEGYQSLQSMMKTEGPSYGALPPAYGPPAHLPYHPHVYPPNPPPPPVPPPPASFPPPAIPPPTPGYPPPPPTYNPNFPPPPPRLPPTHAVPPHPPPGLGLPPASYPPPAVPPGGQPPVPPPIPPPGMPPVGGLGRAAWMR
Sequence of CHEK2 (O96017 whole entry): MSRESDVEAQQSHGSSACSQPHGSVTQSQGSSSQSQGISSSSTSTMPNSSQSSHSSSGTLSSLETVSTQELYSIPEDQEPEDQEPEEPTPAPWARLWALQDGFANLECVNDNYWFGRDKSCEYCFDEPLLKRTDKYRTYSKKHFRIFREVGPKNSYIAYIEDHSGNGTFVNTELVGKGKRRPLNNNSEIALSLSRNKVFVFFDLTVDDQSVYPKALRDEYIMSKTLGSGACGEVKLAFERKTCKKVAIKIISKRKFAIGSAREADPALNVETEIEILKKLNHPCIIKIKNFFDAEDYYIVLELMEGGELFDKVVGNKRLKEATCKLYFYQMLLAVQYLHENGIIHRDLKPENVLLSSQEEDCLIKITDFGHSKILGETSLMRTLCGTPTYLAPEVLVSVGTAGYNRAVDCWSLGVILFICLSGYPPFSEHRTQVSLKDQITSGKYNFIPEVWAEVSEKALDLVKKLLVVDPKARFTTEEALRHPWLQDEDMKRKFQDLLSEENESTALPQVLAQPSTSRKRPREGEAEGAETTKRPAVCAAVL

SMILES: C=CC(=O)Nc1ccc(C(=O)Nc2cccc(Nc3n[nH]c4c3CN(C(=O)N[C@H](CN(C)C)c3ccccc3)C4(C)C)c2)cc1 [Compound 101, (S)-3-((3-(4-acrylamidobenzamido)phenyl)amino)-N-(2-(dimethylamino)-1-phenylethyl)-6,6-dimethyl-4,6-dihydropyrrolo[3,4-c]pyrazole-5(1H)-carboxamide]
IC50 [1]: < 0.5 µM | IC50 [2]: 0.1 to 1 µM | Covalent labeling of CDK7 peptide detected by mass spectrometry [3]: labeled with Compound 101 at Cys312 | IC50 [4]: < 0.1 µM | IC50 [5]: 0.1 to 1 µM | IC50 [6]: < 0.1 µM | IC50 [7]: < 0.1 µM | IC50 [8]: < 0.1 µM | IC50 [9]: ≥ 1 µM | IC50 [10]: < 0.1 µM | IC50 [11]: 0.5 to 5000 µM | IC50 [12]: < 0.5 µM | IC50 [13]: < 0.1 µM | IC50 [14]: ≥ 1 µM

SMILES: C=CC(=O)Nc1ccc(C(=O)Nc2ccc(Nc3n[nH]c4c3CN(C(=O)N[C@H](CN(C)C)c3ccccc3)C4(C)C)cc2)cc1 [Compound 102, (S)-3-((4-(4-acrylamidobenzamido)phenyl)amino)-N-(2-(dimethylamino)-1-phenylethyl)-6,6-dimethyl-4,6-dihydropyrrolo[3,4-c]pyrazole-5(1H)-carboxamide]
IC50 [11]: ≥ 5000 µM | IC50 [13]: < 0.1 µM

SMILES: CCC(=O)Nc1ccc(C(=O)Nc2cccc(Nc3n[nH]c4c3CN(C(=O)N[C@H](CN(C)C)c3ccccc3)C4(C)C)c2)cc1 [Compound 104, (S)-N-(2-(dimethylamino)-1-phenylethyl)-6,6-dimethyl-3-((3-(4-propionamidobenzamido)phenyl)amino)-4,6-dihydropyrrolo[3,4-c]pyrazole-5(1H)-carboxamide]
IC50 [1]: 0.5 to 5000 µM | IC50 [12]: 0.5 to 5000 µM | IC50 [13]: < 0.1 µM

SMILES: C=CC(=O)Nc1ccc(C(=O)Nc2cccc(Nc3n[nH]c4c3CN(C(=O)NCCN(C)C)C4(C)C)c2)cc1 [Compound 106, 3-((3-(4-acrylamidobenzamido)phenyl)amimo)-N-(2-(dimethylamino)ethyl)-6,6-dimethyl-4,6-dihydropyrrolo[3,4-c]pyrazole-5(1H)-carboxamide]
IC50 [5]: 0.1 to 1 µM | IC50 [11]: ≥ 5000 µM | IC50 [13]: 0.1 to 1 µM

SMILES: C=CC(=O)Nc1ccc(C(=O)Nc2cccc(Nc3n[nH]c4c3CN(C(=O)N3CCN(C)CC3)C4(C)C)c2)cc1 [Compound 107, 4-acrylamido-N-(3-((6,6-dimethyl-5-(4-methylpiperazine-1-carbonyl)-1,4,5,6-tetrahydropyrrolo[3,4-c]pyrazol-3-yl)amino)phenyl)benzamide]
IC50 [1]: 0.5 to 5000 µM | IC50 [13]: < 0.1 µM

SMILES: C=CC(=O)Nc1ccc(C(=O)Nc2cccc(C(=O)Nc3n[nH]c4c3CN(C(=O)N[C@H](CN(C)C)c3ccccc3)C4(C)C)c2)cc1 [Compound 112, (S)-3-(3-(4-acrylamidobenzamido)benzamido)-N-(2-(dimethylamino)-1-phenylethyl)-6,6-dimethyl-4,6-dihydropyrrolo[3,4-c]pyrazole-5(1H)-carboxamide]
IC50 [11]: 0.5 to 5000 µM | IC50 [13]: < 0.1 µM

SMILES: C=CC(=O)Nc1ccc(C(=O)Nc2n[nH]c3c2CN(C(=O)N[C@H](CN(C)C)c2ccccc2)C32CCCCC2)cc1 [Compound 236, (S)-3′-(4-acrylamidobenzamido)-N-(2-(dimethylamino)-1-phenylethyl)-1′,4′-dihydro-5′H-spiro(cyclohexane-1,6′-pyrrolo[3,4-c]pyrazole]-5′-carboxamide]
IC50 [13]: 0.1 to 1 µM

Second part, the molecule after the results:

IC50 [13]: ≥ 1 µM
SMILES: C=CC(=O)Nc1ccc(C(=O)Nc2n[nH]c3c2CN(C(=O)N[C@H](CN(C)C)c2ccccc2)[C@@H]3c2ccccc2)cc1 [Compound 237, (R)-3-(4-acrylamidobenzamido)-N-((S)-2-(dimethylamino)-1-phenylethyl)-6-phenyl-4,6-dihydropyrrolo[3,4-c]pyrazole-5(1H)-carboxamide]

IC50 [13]: ≥ 1 µM
SMILES: C=CC(=O)Nc1ccc(C(=O)Nc2n[nH]c3c2CN(C(=O)N[C@H](CN(C)C)c2ccccc2)[C@H]3c2ccccc2)cc1 [Compound 239, (S)-3-(4-acrylamidobenzamido)-N-((S)-2-(dimethylamino)-1-phenylethyl)-6-phenyl-4,6-dihydropyrrolo[3,4-c]pyrazole-5(1H)-carboxamide]

IC50 [13]: < 0.1 µM
SMILES: C=CC(=O)Nc1cccc(C(=O)Nc2nn(C)c3c2CN(C(=O)N[C@H](CN(C)C)c2ccccc2)C3(C)C)c1 [Compound 241, (S)-3-(3-acrylamidobenzamido)-N-(2-(dimethylamino)-1-phenylethyl)-1,6,6-trimethyl-4,6-dihydropyrrolo[3,4-c]pyrazole-5(1H)-carboxamide]

IC50 [13]: ≥ 1 µM
SMILES: C=CC(=O)Nc1ccc(C(=O)Nc2c3c(nn2C)C(C)(C)N(C(=O)N[C@H](CN(C)C)c2ccccc2)C3)cc1 [Compound 242, (S)-3-(4-acrylamidobenzamido)-N-(2-(dimethylamino)-1-phenylethyl)-2,6,6-trimethyl-2,6-dihydropyrrolo[3,4-c]pyrazole-5(4H)-carboxamide]

IC50 [13]: ≥ 1 µM
SMILES: C=CC(=O)Nc1ccc(C(=O)Nc2nn(C)c3c2CN(C(=O)N[C@H](CN(C)C)c2ccccc2)C3(C)C)c(OC)c1 [Compound 243, (S)-3-(4-acrylamido-2-methoxybenzamido)-N-(2-(dimethylamino)-1-phenylethyl)-1,6,6-trimethyl-4,6-dihydropyrrolo[3,4-c]pyrazole-5(1H)-carboxamide]

IC50 [13]: ≥ 1 µM
SMILES: C=CC(=O)Nc1ccc(C(=O)Nc2c3c(nn2C)C(C)(C)N(C(=O)N[C@H](CN(C)C)c2ccccc2)C3)c(OC)c1 [Compound 244, (S)-3-(4-acrylamido-2-methoxybenzamido)-N-(2-(dimethylamino)-1-phenylethyl)-2,6,6-trimethyl-2,6-dihydropyrrolo[3,4-c]pyrazole-5(4H)-carboxamide]

IC50 [13]: 0.1 to 1 µM
SMILES: C=CC(=O)Nc1ccc(C(=O)Nc2nn(C)c3c2CN(C(=O)O[C@H](CN(C)C)c2ccccc2)C3(C)C)cc1 [Compound 246, (S)-2-(dimethylamino)-1-phenylethyl 3-(4-acrylamidobenzamido)-1,6,6-trimethyl-4,6-dihydropyrrolo[3,4-c]pyrazole-5(1H)-carboxylate]
